Tests used:
[1] = target: T1, human GABAA α5β3*γ2S receptor (Homo sapiens, UniProt P18507+P31644); assay: In vitro inhibition of 3H-flumazenil binding, HEK cells expressing human GABAA α5β3*γ2S receptor
T1 construct: expressed in transfected cells
Procedure: When the cultures reach confluency, the DMEM is removed and the cells are washed (10 ml for T175 flasks; 50 ml for roller bottles) once in Dulbecco's Phosphate Buffered Saline (DPBS). Following addition of DPBS to the cultures (10 ml for T175 flasks; 100 ml for roller bottles) for approximately 5 min cells are easily detached from the surface by shaking or tapping the flask gently. The cell suspension is transferred to Falcon tubes and centrifuged at 23,500×g for 10 min at 2° C. The pellet is washed once in 15 ml Tris-citrate buffer (50 mM, pH 7.1) using an Ultra-Turrax homogenizer and centrifuged at 2° C. for 10 min at 27,000×g. The washed pellet is re-suspended in 15 ml Tris-citrate buffer and frozen at −80° C. until the day of the binding experiment.
On the day of the experiment the cell membrane preparation is thawed and centrifuged at 2° C. for 10 min at 27,000×g.
Non-specific binding is determined using clonazepam (1 μM, final concentration). […]
The amount of radioactivity on the filters is determined by conventional liquid scintillation counting using a […]
where B is the binding in percentage of total specific binding; C is the concentration of test compound; and n is the Hill coefficient. […] The IC50 value is calculated from the concentration response curves by the non-linear regression method using the curve-fitting program GraphPad Prism.

T1 sequence (P31644 32-462): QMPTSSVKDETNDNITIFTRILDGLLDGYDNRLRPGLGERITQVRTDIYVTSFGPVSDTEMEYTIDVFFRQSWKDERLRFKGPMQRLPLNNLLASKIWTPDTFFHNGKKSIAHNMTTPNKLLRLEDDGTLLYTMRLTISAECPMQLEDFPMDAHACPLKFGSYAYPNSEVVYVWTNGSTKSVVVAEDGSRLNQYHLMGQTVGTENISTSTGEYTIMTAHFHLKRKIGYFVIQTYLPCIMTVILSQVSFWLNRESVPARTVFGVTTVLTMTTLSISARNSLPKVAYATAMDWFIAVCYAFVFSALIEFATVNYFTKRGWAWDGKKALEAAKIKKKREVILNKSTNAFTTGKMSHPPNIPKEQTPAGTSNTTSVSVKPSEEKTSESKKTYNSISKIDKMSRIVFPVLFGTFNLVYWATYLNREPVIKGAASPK
T1 sequence (P18507 40-467 isoform P18507-1 limits assumed): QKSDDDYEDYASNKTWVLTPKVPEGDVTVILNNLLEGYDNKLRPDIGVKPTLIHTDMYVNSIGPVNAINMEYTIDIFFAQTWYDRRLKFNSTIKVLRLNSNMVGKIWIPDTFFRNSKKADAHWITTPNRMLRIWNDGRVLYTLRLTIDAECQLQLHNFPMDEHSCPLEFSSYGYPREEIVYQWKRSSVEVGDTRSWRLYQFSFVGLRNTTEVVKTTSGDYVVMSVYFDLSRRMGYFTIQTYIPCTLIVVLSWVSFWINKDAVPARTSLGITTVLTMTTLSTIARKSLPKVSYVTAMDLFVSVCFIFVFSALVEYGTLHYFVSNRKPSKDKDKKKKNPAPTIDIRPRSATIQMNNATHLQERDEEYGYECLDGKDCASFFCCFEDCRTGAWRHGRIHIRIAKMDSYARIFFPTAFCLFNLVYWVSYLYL

melting point: 178 to 181.5 °C | Ki [1]: 20 nM
SMILES: Cn1nnc(-c2ccccc2F)c1COc1ccc(-n2cnc(C#N)c2)cn1 [Compound 7, 1-{6-[5-(2-Fluoro-phenyl)-3-methyl-3H-[1,2,3]triazol-4-ylmethoxy]-pyridin-3-yl}-1H-imidazole-4-carbonitrile]
